Literature values as cited in patent US20110014269A1, “CIVAMIDE PATCH FOR LOCALIZED POST-INCISIONAL NEUROPATHIC PAIN” (WINSTON LABORATORIES, INC., priority 2009, published 2011).

Conditions: treatment of painful, inflammatory or allergic disorders

In the case of `COc1cc(CNC(=O)CCCC/C=C\C(C)C)ccc1O` [Civamide, cis-8-methyl-N-vanillyl-6-nonenamide], the “burning and stinging relative to capsaicin's use” value is listed as “significantly less”.
